Here are results for eleven compounds from ChEMBL document CHEMBL1201862, “PubChem BioAssay data set” (2004).

Experiment in all cases: NCI-60 cell line screen, 48 h
Experiment [1] relates to SF-539.
Experiment [2] deals with HCT-15.
Experiment [3] deals with U-251.
Experiment [4] has as its system SW-620.
In experiment [5] the test system is K562.
The test system of experiment [6] is PC-3.
Experiment [7] relates to 786-0.
Experiment [8] concerns MOLT-4.
In experiment [9] the test system is SNB-19.
Experiment [10] deals with SK-MEL-28.
In experiment [11] the test system is Malme-3M.
In experiment [12] the test system is KM12.
For experiment [13], the system named is SN12C.
For experiment [14], the system named is NCI-H460.
The test system of experiment [15] is OVCAR-3.
Experiment [16] concerns HOP-92.
In experiment [17] the test system is NCI-H522.
The test system of experiment [18] is SF-268.
The test system of experiment [19] is CAKI-1.
Experiment [20] has as its system RXF 393.

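Each compound was tested at five concentrations against cells in 96-well plates for 48 hours. The concentration for 50% growth inhibition is given as GI50.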 Active and inactive are the calls of the source. Cut-off read from the data, not from the text of the source: active = GI50 up to about 1.1 µM and inactive = higher.

Regarding `CC(=O)OCCn1c(Cc2ccc(Cl)cc2)nn(C(C)=O)c1=O`, the GI50 was > 100 µM (inactive) in [1]; > 100 µM in experiment [2]; > 100 µM (inactive) in experiment [3]; > 100 µM (inactive) in [4]; > 100 µM (inactive) in [5]; > 100 µM (inactive) in [6]. For the same compound, the GI50 in [7], in [8], in experiment [9], in experiment [10], in [11] and in experiment [12] was > 100 µM (inactive) in each case. In addition, the GI50 in experiment [13], in experiment [14], in experiment [15], in [16], in [17] and in experiment [18] was > 100 µM (inactive) throughout. For the same compound, in [19], the GI50 is > 100 µM (inactive).
As to `Oc1cc(-c2ccccc2)nc2cc3c(cc12)OCO3`, the GI50 in experiment [1] is 6.05 µM (inactive); in experiment [2], 18.8 µM; in experiment [3], 29.2 µM (inactive); in [4], 6.15 µM (inactive); in [5], 4.06 µM (inactive); in [6], 30.2 µM (inactive). Besides, the GI50 is 9.95 µM (inactive) in experiment [7]; 5.69 µM (inactive) in experiment [20]; 15.1 µM (inactive) in experiment [8]; 20 µM (inactive) in experiment [9]; 6.75 µM (inactive) in experiment [10]; 3.76 µM (inactive) in experiment [11]. Further, the GI50 was 1.54 µM (inactive) in experiment [12]; 12.8 µM (inactive) in experiment [13]; 7.87 µM (inactive) in experiment [14]; 10 µM (inactive) in [15]; 3.98 µM (inactive) in experiment [16]; 3.93 µM (inactive) in experiment [17]. In experiment [18], the GI50 was 3.83 µM (inactive).
Take `Nc1ccc(-c2nc3ccc(F)cc3s2)cc1I`: the GI50 was 5.9 µM (inactive) in [1]; > 100 µM in [2]; > 90.8 µM (inactive) in [3]; > 100 µM (inactive) in [4]; > 100 µM (inactive) in experiment [5]; > 100 µM (inactive) in experiment [6]. Besides, the GI50 was 40.4 µM (inactive) in experiment [7]; > 26.1 µM (inactive) in experiment [20]; 12.4 µM (inactive) in experiment [8]; > 61.2 µM (inactive) in experiment [9]; > 100 µM (inactive) in experiment [10]; > 100 µM (inactive) in [11]. Further, the GI50 was > 100 µM (inactive) in experiment [12]; > 100 µM (inactive) in [13]; > 100 µM (inactive) in experiment [14]; 24.8 µM (inactive) in experiment [16]; > 63.1 µM (inactive) in experiment [17]; > 63.8 µM (inactive) in [18]. In experiment [19], the GI50 was > 100 µM (inactive).
Turning to `O=C1/C(=C/c2ccco2)N=C(c2ccccc2)N1c1cc2cc(Sc3ccccc3)ccc2[nH]1`, the GI50 was 17.9 µM (inactive) in [1]; > 25 µM in experiment [2]; 13.1 µM (inactive) in experiment [4]; 7.96 µM (inactive) in experiment [5]; > 25 µM (inactive) in experiment [6]; > 25 µM (inactive) in experiment [7]. Also, the GI50 in experiment [20] was 13.1 µM (inactive); in experiment [8], 22.4 µM (inactive); in experiment [9] it was > 25 µM (inactive); in [10], > 25 µM (inactive); in experiment [11], > 25 µM (inactive); in [13], 17.4 µM (inactive). For the same compound, the GI50 in experiment [16] is 8.24 µM (inactive); in experiment [17] it was 11.6 µM (inactive); in [18], > 25 µM (inactive); in experiment [19], 9.46 µM (inactive).
As for `O=C(Nc1sccc1S(=O)(=O)c1ccccc1)c1ccccc1`, the GI50 in experiment [1] is > 100 µM (inactive); in [2] it was 7.16 µM; in experiment [3], > 100 µM (inactive); in [4] it was > 84.3 µM (inactive); in experiment [5] it was 1.91 µM (inactive); in experiment [6], > 100 µM (inactive). The GI50 in [7], in [8], in experiment [9], in experiment [10], in [11] and in experiment [12] was > 100 µM (inactive) each time. The GI50 in experiment [13] is > 100 µM (inactive); in [14], > 31.6 µM (inactive); in [15], 99.5 µM (inactive); in experiment [16], > 100 µM (inactive); in experiment [17] it was > 100 µM (inactive); in experiment [18], > 100 µM (inactive). In [19], the GI50 is > 100 µM (inactive).
Turning to `CC1C2CC(C(S(=O)(=O)O)C2=O)C1(C)C` (stereo not given), the GI50 in experiment [1], in [3], in experiment [4], in [5], in experiment [6] and in experiment [7] was > 100 µM (inactive) each time. Also, the GI50 in [20], in experiment [8], in [9], in experiment [10], in [11] and in experiment [12] was > 100 µM (inactive) in each case. The GI50 in experiment [13], in experiment [14], in experiment [15], in experiment [16], in [17] and in experiment [18] was > 100 µM (inactive) throughout.
In the case of `CN(C)Cc1cc(O)c(O)c(CN(C)C)c1`, the GI50 in experiment [2] is 24.2 µM; in experiment [3], 36.6 µM (inactive); in experiment [4] it was 64.3 µM (inactive); in experiment [5], 33 µM (inactive); in [6], 48.8 µM (inactive); in experiment [7] it was 31.4 µM (inactive). For the same compound, the GI50 in experiment [20] was 50.4 µM (inactive); in [8], 27.9 µM (inactive); in experiment [9], 50.9 µM (inactive); in [10], 51.9 µM (inactive); in experiment [11], 31.3 µM (inactive); in experiment [12], 94.2 µM (inactive). The GI50 in [13] is 36.9 µM (inactive); in experiment [14], 21.4 µM (inactive); in experiment [15], 36.7 µM (inactive); in experiment [16], > 100 µM (inactive); in experiment [17], 30.3 µM (inactive); in experiment [18], 35.4 µM (inactive). Further, in experiment [19], the GI50 was 34.4 µM (inactive).
With `CCOC(=O)/C(C#N)=C/Nc1c(C)n(C)n(-c2ccccc2)c1=O`, the GI50 in [1] was > 100 µM (inactive); in experiment [2] it was > 100 µM; in experiment [3], > 100 µM (inactive); in [4], > 100 µM (inactive); in experiment [5], > 100 µM (inactive); in experiment [6], > 100 µM (inactive). For the same compound, the GI50 in experiment [7], in [20], in [8], in experiment [11], in experiment [12] and in [13] was > 100 µM (inactive) throughout. In addition, the GI50 in experiment [15], in [16], in [17] and in [19] was > 100 µM (inactive) throughout.
Consider `NCC(O)CSCc1ccc(Cl)cc1` (stereo not given), for which the GI50 is > 100 µM in experiment [2]; > 100 µM (inactive) in experiment [3]; > 100 µM (inactive) in [4]; > 100 µM (inactive) in experiment [5]; > 100 µM (inactive) in experiment [6]; > 100 µM (inactive) in experiment [7]. Also, the GI50 in experiment [20], in experiment [8], in experiment [9], in experiment [10], in experiment [11] and in experiment [12] was > 100 µM (inactive) throughout. In addition, the GI50 in experiment [13], in experiment [14], in [15], in [16], in experiment [17] and in experiment [18] was > 100 µM (inactive) throughout. For the same compound, the GI50 in experiment [19] is > 100 µM (inactive).
On to `CN1C(=O)NC(=O)/C(=C\Nc2ncccn2)C1=O`, for which the GI50 was > 100 µM (inactive) in experiment [1]; > 100 µM in experiment [2]; > 100 µM (inactive) in experiment [3]; > 100 µM (inactive) in [4]; > 100 µM (inactive) in experiment [6]; > 100 µM (inactive) in experiment [7]. Besides, the GI50 in experiment [8], in experiment [9], in experiment [10], in [11], in experiment [12] and in [13] was > 100 µM (inactive) each time. The GI50 in [14], in [15], in [16], in [17], in [18] and in experiment [19] was > 100 µM (inactive) throughout.
In the case of `O=C(O)CSC1=NC(=O)C2(NN1)c1ccccc1-c1ccccc12`, the GI50 was > 10 µM (inactive) in experiment [1]; > 10 µM in experiment [2]; > 10 µM (inactive) in experiment [4]; > 10 µM (inactive) in [5]; > 10 µM (inactive) in experiment [6]; > 10 µM (inactive) in [7]. In addition, the GI50 in experiment [20], in experiment [8], in experiment [9], in experiment [10], in experiment [11] and in experiment [12] was > 10 µM (inactive) throughout. In addition, the GI50 in experiment [13], in experiment [14], in experiment [16], in experiment [17], in [18] and in experiment [19] was > 10 µM (inactive) in each case.
